Assay results taken from patent publication US20080070868A1, “Novel Thiazole Inhibitors of Fructose 1,6-bisphosphatase” (Metabasis Therapeutics, Inc., priority 2004, published 2008).

Key:
[1] = molecular target: T1, human liver FBPase (Homo sapiens, UniProt P09467); assay: Inhibition of human liver FBPase; assay type: biochemical; settings: purified recombinant human liver FBPase, 0.150 mM fructose 1,6-bisphosphate, 37° C.; read-out: IC50 (hlFBPase)
T1 construct: made in house; host or cells: E. coli BL21
T1 sequence (P09467 2-338 limits assumed): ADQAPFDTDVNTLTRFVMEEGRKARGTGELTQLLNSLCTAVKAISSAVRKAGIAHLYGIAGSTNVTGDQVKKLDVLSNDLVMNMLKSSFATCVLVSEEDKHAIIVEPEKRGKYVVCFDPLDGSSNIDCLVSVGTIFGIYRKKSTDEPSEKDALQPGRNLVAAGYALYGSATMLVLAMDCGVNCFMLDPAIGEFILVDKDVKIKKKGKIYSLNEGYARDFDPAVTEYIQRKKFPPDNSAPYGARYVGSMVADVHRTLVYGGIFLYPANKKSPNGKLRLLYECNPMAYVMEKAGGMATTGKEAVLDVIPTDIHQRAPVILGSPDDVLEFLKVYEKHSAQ
Method: E. coli strain BL21 transformed with a human liver FBPase-encoding plasmid was obtained from Dr. M. R. El-Maghrabi at the State University of New York at Stony Brook. […] Enzymatic activity was measured spectrophotometrically in reactions that coupled the formation of product (fructose 6-phosphate) to the reduction of dimethylthiazoldiphenyltetrazolium bromide (MTT) via NADP^+ and phenazine methosulfate (PMS), using phosphoglucose isomerase and glucose 6-phosphate dehydrogenase as the coupling enzymes. Reaction mixtures (200 μl) were made up in 96-well microtitre plates, and consisted of 50 mM Tris-HCl, pH 7.4, 100 mM KCl, 5 mM EGTA, 2 mM MgCl2, 0.2 mM NADP, 1 mg/ml BSA, 1 mM MTT, 0.6 mM PMS, 1 unit/ml phosphoglucose isomerase, 2 units/ml glucose 6-phosphate dehydrogenase, and 0.150 mM substrate (fructose 1,6-bisphosphate). Inhibitor concentrations were varied from 0.01 μM to 10 μM. Reactions were started by the addition of 0.002 units of pure hlFBPase, and were monitored for 7 min. at 590 nm in a Molecular Devices Plate Reader (37° C.).

[2] = molecular target: T2, human NAT1 (Homo sapiens, UniProt P18440); assay: N-acetylation by recombinant human NAT1; assay type: in vitro ADME; settings: for % Conversion NAT1: compound 100 μM, 37° C., 120 min, N-acyl product by HPLC; for susceptibility to N-acetylation by NAT1, in words: human recombinant NAT1
T2 construct: purchased BD Gentest (Bedford, Mass.); host or cells: insect cells
T2 sequence (P18440 1-290): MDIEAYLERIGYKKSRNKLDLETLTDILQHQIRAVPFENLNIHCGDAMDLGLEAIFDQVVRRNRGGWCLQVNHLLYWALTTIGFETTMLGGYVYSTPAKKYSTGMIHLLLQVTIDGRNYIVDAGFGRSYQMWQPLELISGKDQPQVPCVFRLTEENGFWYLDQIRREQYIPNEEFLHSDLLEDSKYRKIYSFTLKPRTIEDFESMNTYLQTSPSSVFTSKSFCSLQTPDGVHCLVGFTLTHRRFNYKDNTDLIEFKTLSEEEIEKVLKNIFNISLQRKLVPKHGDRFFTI
Method: (§1) Insect cell-expressed human NAT1 and NAT2 and control insect cytosol were obtained from BD Gentest (Bedford, Mass.). Compounds (100 μM) were incubated in 0.25 mL of NAT reaction cocktail consisting of 25 mM potassium phosphate pH 7.4 (at 25° C.), 1 mM EDTA, 1 mM DTT, 0.5 mM acetyl CoA, 5 mM acetyl-DL-carnitine, 20 u/mL acetyltransferase and either NAT1, NAT2 or control insect cytosol (0.1 mg/mL). Reactions were performed in an Eppendorf Thermomixer (37° C., 120 min.). At 0 and 120 min., 100 μl of each reaction was removed and added to a clean 1.7 mL tube containing 150 μl of 100% methanol. The tubes were vortexed and centrifuged at 14,000 rpm for 10 min. in an Eppendorf microcentrifuge (room temperature, 5 min., 14,000 rpm). The supernatants were analyzed by HPLC (Agilent 1100 series) using a Phenosphere C18 column (5 micron, 150×4.6 mm). The column was equilibrated with 20 mM potassium phosphate pH 4.5 or pH 6.2 (at 25° C.) and eluted with a linear gradient to 80% acetonitrile. The percent conversion of the compounds was calculated from the following equation: area of N-acyl product divided by (area of compound+area of N-acyl product), multiplied by 100.

[3] = tested on: Sprague-Dawley rats; assay: Glucose lowering following oral administration to the fasted, normal rat; assay type: in vivo; settings: maximum lowering relative to saline controls, 10 mg/kg oral, 18-h fasted rats
Method: Compounds were administered by oral gavage to 18-h fasted, Sprague-Dawley rats (250-300 g, n=3/4/group) at a dose of 10 mg/kg. Phosphonic acids (active moieties) were prepared in deionized water, and the solution adjusted to neutrality with sodium hydroxide. Prodrugs were dissolved in polyethylene glycol (mw 400). Blood samples were taken via tail vein nick immediately prior to dosing and at 1 h intervals thereafter. Blood glucose was analyzed by means of a HemoCue glucose analyzer (HemoCue Inc., Mission Viejo, Calif.). The table below indicates the maximum % glucose lowering achieved relative to control animals dosed with saline.

[4] = tested on: ZDF rats; assay: Blood glucose lowering in the Zucker Diabetic Fatty (ZDF) rat; assay type: in vivo; settings: for glucose lowering compared to vehicle-treated rats: 10 mg/kg oral in PEG-400, at 6 h, fasting ZDF rats; for duration of action: ZDF rat, oral, 2.1 at 10-300 mg/kg
Method: Nine week old ZDF rats were fasted at 7 am and screened for hyperglycemia (BG>300 mg/dl) at 12:30 pm. […] Food was withheld for 6 to 9 h. Blood samples were collected intermittently from the tail vein and diluted 1:2 (v:v) in 20% glycerol-saline with 20 U/ml heparin. Blood glucose was determined by means of a Hemocue glucose analyzer (Hemocue Inc., Mission Viejo, Calif.) used according to the instructions of the manufacturer. Results were expressed as means ±standard errors of the mean (sem) for all values. Differences between treatment and vehicle-treated animals were evaluated using ANOVA with Dunnett's post-hoc analysis or Tukey-Kramer's post hoc analysis when all differences are compared. Differences are considered significant when p≦0.05.

[5] = Variability of N-acetylation in human liver S9 fractions; assay type: in vitro ADME; settings: 100 μM, S9 10 mg/mL protein; donors with high or low N-acetylase activity
Method: The reactions are incubated, processed, and analyzed as described in Example C.

[6] = molecular target: T3, human NAT2 (Homo sapiens, UniProt P11245); settings: for % Conversion NAT2: human, 120 min, 100 μM, pH 7.4
T3 sequence (P11245 1-290): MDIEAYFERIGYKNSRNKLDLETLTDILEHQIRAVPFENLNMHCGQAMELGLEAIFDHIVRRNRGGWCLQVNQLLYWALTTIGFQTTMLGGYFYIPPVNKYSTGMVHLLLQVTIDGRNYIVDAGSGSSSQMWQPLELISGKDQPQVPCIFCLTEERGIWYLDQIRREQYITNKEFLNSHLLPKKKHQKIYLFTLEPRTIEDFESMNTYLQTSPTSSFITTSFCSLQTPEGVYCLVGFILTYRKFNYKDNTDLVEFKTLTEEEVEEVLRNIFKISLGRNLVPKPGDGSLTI
Method: as §1

[7] = molecular target: T4, rat liver FBPase (Rattus norvegicus, UniProt P19112); assay: Inhibition of rat liver FBPase; assay type: biochemical; settings: partially purified rat liver FBPase; read-out: IC50 (rlFBPase)
T4 construct: This partially purified fraction was used for enzyme assays; from tissue; host or cells: rat liver (45-75% ammonium sulfate fraction of the homogenate)
T4 sequence (P19112 2-363 limits assumed): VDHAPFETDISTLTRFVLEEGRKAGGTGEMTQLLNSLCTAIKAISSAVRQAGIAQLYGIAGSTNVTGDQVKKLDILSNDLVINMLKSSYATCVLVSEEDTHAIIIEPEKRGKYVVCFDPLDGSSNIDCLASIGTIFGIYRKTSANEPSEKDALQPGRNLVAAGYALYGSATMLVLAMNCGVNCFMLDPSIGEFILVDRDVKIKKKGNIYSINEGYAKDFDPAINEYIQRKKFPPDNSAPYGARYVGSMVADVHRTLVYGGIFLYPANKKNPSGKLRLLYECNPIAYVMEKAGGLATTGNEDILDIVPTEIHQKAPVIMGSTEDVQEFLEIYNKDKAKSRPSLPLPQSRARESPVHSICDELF
Method: Rat liver FBPase was obtained by homogenizing freshly isolated rat liver in 100 mM Tris-HCl buffer, pH 7.4, containing 1 mM EGTA, and 10% glycerol. The homogenate was clarified by centrifugation, and the 45-75% ammonium sulfate fraction prepared. This fraction was redissolved in the homogenization buffer and desalted on a PD-10 gel filtration column (Biorad) eluted with same. This partially purified fraction was used for enzyme assays.

Compound | IC50 [1] | % Conversion NAT1 [2] | melting point | inhibition in vivo at 10 mg/kg [3] | also measured
CCC(C)(C)C(=O)c1sc(N)nc1-c1ccc(P(=O)(O)O)o1 [Compound 1.2, {5-[2-amino-5-(2,2-dimethyl-butyryl)thiazol-4-yl]furan-2-yl}phosphonic acid] | 25 nM | 0% | – | – | susceptibility to N-acetylation by NAT1, in words [2]: not metabolized
CCC(C)(CC)C(=O)c1sc(N)nc1-c1ccc(P(=O)(O)O)o1 [Compound 1.3, [5-(2-amino-5-(2-ethyl-2-methyl-butyryl)thiazol-4-yl)furan-2-yl]phosphonic acid] | 18 nM | 0% | 202 to 205 °C | – | susceptibility to N-acetylation by NAT1, in words [2]: not metabolized
CC(=O)c1sc(N)nc1-c1ccc(P(=O)(O)O)o1 [Compound 1.4, [5-(2-amino-5-acetylthiazol-4-yl)furan-2-yl]phosphonic acid] | 66 nM | – | > 207 °C | – | –
Nc1nc(-c2ccc(P(=O)(O)O)o2)c(C(=O)c2ccccc2)s1 [Compound 1.5, [5-(2-amino-5-benzoylthiazol-4-yl)furan-2-yl]phosphonic acid] | 56 nM | – | > 210 °C | – | –
CCOC(=O)C(C)(C)NP(=O)(NC(C)(C)C(=O)OCC)c1ccc(-c2nc(N)sc2C(=O)C(C)(C)C)o1 [Compound 2.1] | > 100000 nM | 0% | 149 to 152 °C | 68% | susceptibility to N-acetylation by NAT1, in words [2]: insusceptible; glucose lowering compared to vehicle-treated rats [4]: 30%; duration of action [4]: > 9 h; conversion to N-acetylated metabolite in human liver S9 from various donors [5]: no conversion; susceptibility to N-acetylation by NAT2, in words [6]: insusceptible; % Conversion NAT2 [6]: 0%
CCOC(=O)[C@H](C)NP(=O)(N[C@@H](C)C(=O)OCC)c1ccc(-c2nc(N)sc2C(=O)C(C)(C)C)o1 [Compound 2.2, 2-amino-5-(2,2-dimethylpropionyl)-4-{[5-(N,N′-((S)-1-ethoxycarbonyl)-ethyl)phosphonamido]furan-2-yl}thiazole] | – | – | – | 25% | susceptibility to N-acetylation by NAT2, in words [6]: insusceptible; % Conversion NAT2 [6]: 0%
CC(C)OC(=O)C(C)(C)NP(=O)(NC(C)(C)C(=O)OC(C)C)c1ccc(-c2nc(N)sc2C(=O)C(C)(C)C)o1 [Compound 2.3] | – | – | – | 27% | susceptibility to N-acetylation by NAT2, in words [6]: insusceptible; % Conversion NAT2 [6]: 0%
CCOC(=O)CNP(=O)(NCC(=O)OCC)c1ccc(-c2nc(N)sc2C(=O)C(C)(C)C)o1 [Compound 2.4] | – | – | 86 to 88 °C | 22% | –
CCOC(=O)C(C)(C)NP(=O)(NC(C)(C)C(=O)OCC)c1ccc(-c2nc(N)sc2C(=O)C(C)(CC)CC)o1 [Compound 2.5] | – | – | 157 to 160 °C | 15% | –
CCC(C)(CC)C(=O)c1sc(N)nc1-c1ccc(P(=O)(NC(C)(C)C(=O)OC(C)C)NC(C)(C)C(=O)OC(C)C)o1 [Compound 2.6] | – | – | 160 to 164 °C | 12% | –
CC(C)(C)Cc1sc(N)nc1-c1ccc(P(=O)(O)O)o1 [Compound 3.1, reference compound] | 12 nM | 22.4% | – | – | IC50 [7]: 92 nM; susceptibility to N-acetylation by NAT1, in words [2]: highly susceptible
Nc1nc(-c2ccc(P(=O)(O)O)o2)c(CC2CCCC2)s1 [Compound 3.2, reference compound] | – | 22.3% | – | – | –
CCC(C)(C)Cc1sc(N)nc1-c1ccc(P(=O)(O)O)o1 [Compound 3.3, reference compound] | – | 4.6% | – | – | –
CC(C)c1sc(N)nc1-c1ccc(P(=O)(O)O)o1 [Compound 3.4, reference compound] | – | 14.0% | – | – | –
CCC(C)Cc1sc(N)nc1-c1ccc(P(=O)(O)O)o1 (centres unmarked) [Compound 3.5, reference compound] | – | 14.2% | – | – | –
CC(C)Cc1sc(N)nc1-c1ccc(P(=O)(O)O)o1 [Compound 3.6, reference compound] | – | 51% | – | – | IC50 [7]: 140 nM; susceptibility to N-acetylation by NAT1, in words [2]: highly susceptible; conversion to N-acetylated metabolite in human liver S9 from various donors [5]: high levels; % Conversion NAT2 [6]: 5.9%
CCOC(=O)[C@H](C)NP(=O)(N[C@@H](C)C(=O)OCC)c1ccc(-c2nc(N)sc2CC(C)C)o1 [Compound 4.6, reference compound] | > 100000 nM | 6.3% | – | – | glucose lowering compared to vehicle-treated rats [4]: 14%; duration of action [4]: ~3 h; conversion to N-acetylated metabolite in human liver S9 from various donors [5]: high levels; susceptibility to N-acetylation by NAT2, in words [6]: extensively metabolized; % Conversion NAT2 [6]: 62.4%
